Assays:
Assay type in all cases: cell-based
M3 muscarinic receptor = biological target: T1, M3 muscarinic receptor (Homo sapiens, UniProt P20309); experiment: Functional mobilization of intracellular calcium (FLIPR) in CHO cells expressing M3; details: for M3 Activity: CHO cells expressing M3, FLIPR calcium assay; for Emax: CHO, 100% efficacy = maximum response obtained with the Carbachol control
T1 construct: expressed in transfected cells; host or cells: CHO (M3-CHO)
In short: (§1)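 Recombinant CHO cells loaded with Fluo-3 AM or Calcium 3 dye in pH 7.4 buffer containing 1 mM probenecid, with 0.5% final DMSO. For agonism, compound is added directly. For inhibition, it is preincubated 15 min, or co-applied, before carbachol at EC80. FLIPR fluorescence (ex 488, em 540 nm) is recorded for 60 s.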

M4 muscarinic receptor = biological target: T2, M4 muscarinic receptor (Homo sapiens, UniProt P08173); experiment: Functional mobilization of intracellular calcium (FLIPR) in CHO cells expressing M4; details: for M4 Activity: CHO cells expressing M4, FLIPR calcium assay; for Emax: CHO, 100% efficacy = maximum response obtained with the Carbachol control
T2 construct: expressed in transfected cells; host or cells: CHO (M4-CHO)
T2 sequence (P08173 1-479): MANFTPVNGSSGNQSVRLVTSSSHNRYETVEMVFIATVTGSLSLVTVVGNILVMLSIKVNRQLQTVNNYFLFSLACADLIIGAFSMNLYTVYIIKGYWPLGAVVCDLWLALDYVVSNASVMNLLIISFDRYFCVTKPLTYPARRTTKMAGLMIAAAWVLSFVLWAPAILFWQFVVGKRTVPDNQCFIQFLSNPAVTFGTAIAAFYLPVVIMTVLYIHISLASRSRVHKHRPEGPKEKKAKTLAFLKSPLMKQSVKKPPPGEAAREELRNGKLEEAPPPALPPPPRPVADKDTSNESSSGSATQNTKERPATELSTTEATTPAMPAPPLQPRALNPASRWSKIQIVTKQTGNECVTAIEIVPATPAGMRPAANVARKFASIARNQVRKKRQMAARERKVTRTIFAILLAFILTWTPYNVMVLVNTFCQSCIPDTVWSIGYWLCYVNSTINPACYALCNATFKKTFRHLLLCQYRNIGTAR
In short: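 Calcium flux is read on FLIPR over 60 sec at 488/540 nm in muscarinic-receptor CHO lines. Antagonist mode adds carbachol at EC80 after 15 min compound preincubation or with simultaneous co-application. Agonist mode adds compound alone. Cells carry Fluo-3 or Calcium 3 dye in probenecid-containing pH 7.4 buffer, 0.5% DMSO final.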

M1 muscarinic receptor = biological target: T3, M1 muscarinic receptor (Homo sapiens, UniProt P11229); experiment: Functional mobilization of intracellular calcium (FLIPR) in CHO cells expressing M1; details: for M1 Activity: CHO cells expressing M1, FLIPR calcium assay; for Emax: CHO, 100% efficacy = maximum response obtained with the Carbachol control
T3 construct: expressed in transfected cells; host or cells: CHO (M1-CHO)
T3 sequence (P11229 1-460): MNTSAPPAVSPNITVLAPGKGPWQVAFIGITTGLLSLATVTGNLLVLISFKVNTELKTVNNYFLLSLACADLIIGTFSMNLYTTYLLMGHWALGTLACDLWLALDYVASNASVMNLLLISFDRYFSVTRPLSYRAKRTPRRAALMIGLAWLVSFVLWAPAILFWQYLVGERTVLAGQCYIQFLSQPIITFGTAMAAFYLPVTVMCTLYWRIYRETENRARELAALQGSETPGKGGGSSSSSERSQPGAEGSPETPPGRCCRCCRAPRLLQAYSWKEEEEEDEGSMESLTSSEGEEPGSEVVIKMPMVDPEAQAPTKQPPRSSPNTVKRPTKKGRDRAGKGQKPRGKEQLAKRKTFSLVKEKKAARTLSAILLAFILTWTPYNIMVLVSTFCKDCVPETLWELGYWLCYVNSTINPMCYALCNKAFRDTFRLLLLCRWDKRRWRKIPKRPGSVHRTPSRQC
In short: as §1

M2 muscarinic receptor = biological target: T4, M2 muscarinic receptor (Homo sapiens, UniProt P08172); experiment: Functional mobilization of intracellular calcium (FLIPR) in CHO cells expressing M2; details: for M2 Activity: CHO cells expressing M2, FLIPR calcium assay; for Emax: CHO, 100% efficacy = maximum response obtained with the Carbachol control
T4 construct: expressed in transfected cells; host or cells: CHO (M2-CHO)
T4 sequence (P08172 1-466): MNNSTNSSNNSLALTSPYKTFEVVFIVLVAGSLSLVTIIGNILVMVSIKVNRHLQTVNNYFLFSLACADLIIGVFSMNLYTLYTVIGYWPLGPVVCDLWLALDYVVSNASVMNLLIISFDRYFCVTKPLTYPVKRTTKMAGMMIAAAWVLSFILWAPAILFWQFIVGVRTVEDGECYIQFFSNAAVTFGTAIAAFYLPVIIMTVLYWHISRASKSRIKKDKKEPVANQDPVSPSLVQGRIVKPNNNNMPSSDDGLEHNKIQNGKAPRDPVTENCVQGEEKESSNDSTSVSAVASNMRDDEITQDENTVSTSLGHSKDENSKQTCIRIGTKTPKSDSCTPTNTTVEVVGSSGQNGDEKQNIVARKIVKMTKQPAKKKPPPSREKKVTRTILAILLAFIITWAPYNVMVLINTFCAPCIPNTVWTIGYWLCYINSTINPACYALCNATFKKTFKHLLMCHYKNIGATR
In short: as §1

T1 sequence (P20309 whole entry): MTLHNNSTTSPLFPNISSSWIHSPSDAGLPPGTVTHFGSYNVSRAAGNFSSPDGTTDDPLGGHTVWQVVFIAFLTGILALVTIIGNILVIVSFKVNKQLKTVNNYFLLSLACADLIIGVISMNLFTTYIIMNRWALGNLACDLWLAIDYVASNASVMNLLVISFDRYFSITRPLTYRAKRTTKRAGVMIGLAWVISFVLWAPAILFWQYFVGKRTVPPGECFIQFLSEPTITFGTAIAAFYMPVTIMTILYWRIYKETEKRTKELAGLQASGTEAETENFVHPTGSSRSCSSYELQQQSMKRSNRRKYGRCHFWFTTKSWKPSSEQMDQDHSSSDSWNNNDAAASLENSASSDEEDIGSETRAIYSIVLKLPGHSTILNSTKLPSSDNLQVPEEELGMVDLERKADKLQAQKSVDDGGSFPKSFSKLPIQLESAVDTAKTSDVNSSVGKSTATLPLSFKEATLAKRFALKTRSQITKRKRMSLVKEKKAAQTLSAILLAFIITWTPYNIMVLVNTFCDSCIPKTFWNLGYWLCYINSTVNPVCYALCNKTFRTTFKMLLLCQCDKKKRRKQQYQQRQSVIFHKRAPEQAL

Row | Structure (SMILES) | M3 Activity (M3 muscarinic receptor) | Emax (M3 muscarinic receptor) | M4 Activity (M4 muscarinic receptor) | Emax (M4 muscarinic receptor) | M1 Activity (M1 muscarinic receptor) | Emax (M1 muscarinic receptor) | M2 Activity (M2 muscarinic receptor) | Emax (M2 muscarinic receptor)
1 | CC(=O)CCC(=O)N[C@@H]1CCC2(CCN(CCC(C)(C)C)CC2)c2ccccc21 [compound 205] | + (activity was measured to be greater than 5.0 μM) | < 25% | +++ (activity was measured to be less than 2.0 μM) | 25 to 100% | +++ (activity was measured to be less than 2.0 μM) | 25 to 100% | + (activity was measured to be greater than 5.0 μM) | < 25%
2 | CC(C)CCN1CCC2(CC[C@H](N(C)C(=O)N(C)C)c3ccccc32)CC1 [compound 206] | + (activity was measured to be greater than 5.0 μM) | < 25% | +++ (activity was measured to be less than 2.0 μM) | 25 to 100% | + (activity was measured to be greater than 5.0 μM) | < 25% | + (activity was measured to be greater than 5.0 μM) | < 25%
3 | CCn1ccc(C(=O)N[C@H]2CCC3(CCN(CCC(C)(C)C)CC3)c3ccccc32)n1 [compound 207] | + (activity was measured to be greater than 5.0 μM) | < 25% | +++ (activity was measured to be less than 2.0 μM) | 25 to 100% | ++ (activity was measured to be from 2.0 μM to 5.0 μM) | 25 to 100% | + (activity was measured to be greater than 5.0 μM) | < 25%
4 | CC(C)COC(=O)N(C)[C@H]1CCC2(CCN(CCC(C)(C)C)CC2)c2ccccc21 [compound 208] | + (activity was measured to be greater than 5.0 μM) | < 25% | +++ (activity was measured to be less than 2.0 μM) | 25 to 100% | +++ (activity was measured to be less than 2.0 μM) | 25 to 100% | +++ (activity was measured to be less than 2.0 μM) | < 25%
5 | CC(C)(C)CCN1CCC2(CC[C@H](NC(=O)C3CCOCC3)c3ccccc32)CC1 [compound 209] | + (activity was measured to be greater than 5.0 μM) | < 25% | +++ (activity was measured to be less than 2.0 μM) | 25 to 100% | +++ (activity was measured to be less than 2.0 μM) | 25 to 100% | + (activity was measured to be greater than 5.0 μM) | < 25%
6 | CCN(C(=O)CCC(C)=O)[C@@H]1CCC2(CCN(CCC(C)(C)C)CC2)c2ccccc21 [compound 210] | + (activity was measured to be greater than 5.0 μM) | < 25% | +++ (activity was measured to be less than 2.0 μM) | 25 to 100% | +++ (activity was measured to be less than 2.0 μM) | < 25% | + (activity was measured to be greater than 5.0 μM) | < 25%
7 | CCN(C(C)=O)[C@H]1CCC2(CCN(CCC(C)(C)C)CC2)c2ccccc21 [compound 211] | + (activity was measured to be greater than 5.0 μM) | < 25% | +++ (activity was measured to be less than 2.0 μM) | 25 to 100% | +++ (activity was measured to be less than 2.0 μM) | 25 to 100% | + (activity was measured to be greater than 5.0 μM) | < 25%
